Key:
Test in all cases: KinaseProfiler Assay
Assay type in all cases: biochemical
TrkA = TrkA (Homo sapiens, UniProt P04629); conditions: read-out: TrkA, % of Control
PRAK = PRAK (Homo sapiens, UniProt Q8IW41); conditions: read-out: PRAK, % of Control
ZIPK = ZIPK (Homo sapiens, UniProt O43293); conditions: read-out: ZIPK, % of Control
Ros = Ros (Homo sapiens, UniProt P08922); conditions: read-out: Ros, % of Control
PKBβ = PKBβ (Homo sapiens, UniProt P31751); conditions: read-out: PKBβ, % of Control
TrkB = TrkB (Homo sapiens, UniProt Q16620); conditions: read-out: TrkB, % of Control
PKCα = PKCα (Homo sapiens, UniProt P17252); conditions: read-out: PKCα, % of Control
EphA8 = target: T1, EphA8 (Homo sapiens, UniProt P29322); conditions: read-out: EphA8, % of Control
T1 sequence (P29322 28-1005): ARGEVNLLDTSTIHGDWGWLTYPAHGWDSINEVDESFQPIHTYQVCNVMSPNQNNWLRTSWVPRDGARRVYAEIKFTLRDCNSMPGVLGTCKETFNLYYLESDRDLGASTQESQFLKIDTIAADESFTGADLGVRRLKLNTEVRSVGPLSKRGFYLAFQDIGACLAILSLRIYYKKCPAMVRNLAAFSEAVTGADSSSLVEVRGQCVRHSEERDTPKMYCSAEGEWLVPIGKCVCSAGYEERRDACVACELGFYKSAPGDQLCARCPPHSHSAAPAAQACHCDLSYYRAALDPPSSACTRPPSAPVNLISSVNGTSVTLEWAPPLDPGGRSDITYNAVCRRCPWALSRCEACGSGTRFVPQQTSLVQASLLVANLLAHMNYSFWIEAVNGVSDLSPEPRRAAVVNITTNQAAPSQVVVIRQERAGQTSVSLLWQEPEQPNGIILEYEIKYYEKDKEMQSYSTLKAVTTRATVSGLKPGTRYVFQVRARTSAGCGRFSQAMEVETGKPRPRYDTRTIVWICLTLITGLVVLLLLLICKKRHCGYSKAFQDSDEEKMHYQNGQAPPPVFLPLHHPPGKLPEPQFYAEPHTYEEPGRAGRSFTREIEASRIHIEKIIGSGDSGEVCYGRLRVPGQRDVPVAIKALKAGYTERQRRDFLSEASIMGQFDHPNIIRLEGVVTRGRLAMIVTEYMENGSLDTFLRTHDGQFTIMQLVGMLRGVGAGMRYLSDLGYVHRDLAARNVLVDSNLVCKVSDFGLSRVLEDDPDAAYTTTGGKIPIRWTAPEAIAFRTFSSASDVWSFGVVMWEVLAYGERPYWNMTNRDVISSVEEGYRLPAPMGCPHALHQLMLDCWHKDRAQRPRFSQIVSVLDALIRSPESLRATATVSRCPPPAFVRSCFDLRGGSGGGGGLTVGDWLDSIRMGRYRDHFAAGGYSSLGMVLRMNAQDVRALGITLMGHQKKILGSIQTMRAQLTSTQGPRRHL

IKKβ = target: T2, IKKβ (Homo sapiens, UniProt O14920); conditions: read-out: IKKβ, % of Control
T2 sequence (O14920 1-756): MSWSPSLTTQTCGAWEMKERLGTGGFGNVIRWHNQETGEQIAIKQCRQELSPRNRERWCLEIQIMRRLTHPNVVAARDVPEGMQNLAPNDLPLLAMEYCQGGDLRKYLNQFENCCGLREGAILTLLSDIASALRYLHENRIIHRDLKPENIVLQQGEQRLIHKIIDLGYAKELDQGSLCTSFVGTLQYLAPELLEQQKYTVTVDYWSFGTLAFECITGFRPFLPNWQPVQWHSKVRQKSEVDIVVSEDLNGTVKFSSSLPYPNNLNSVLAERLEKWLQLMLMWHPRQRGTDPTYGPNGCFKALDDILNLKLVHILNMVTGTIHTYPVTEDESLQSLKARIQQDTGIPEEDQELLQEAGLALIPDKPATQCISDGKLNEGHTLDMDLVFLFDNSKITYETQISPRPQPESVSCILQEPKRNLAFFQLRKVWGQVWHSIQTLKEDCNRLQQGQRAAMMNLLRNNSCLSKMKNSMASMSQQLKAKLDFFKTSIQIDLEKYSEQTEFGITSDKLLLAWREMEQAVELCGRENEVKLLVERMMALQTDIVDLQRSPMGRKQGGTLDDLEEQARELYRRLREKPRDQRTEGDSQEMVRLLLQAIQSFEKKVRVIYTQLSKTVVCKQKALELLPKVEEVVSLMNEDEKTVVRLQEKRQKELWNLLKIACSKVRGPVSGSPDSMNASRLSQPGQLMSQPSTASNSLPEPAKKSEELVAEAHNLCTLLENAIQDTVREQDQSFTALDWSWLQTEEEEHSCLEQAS

DAPK1 = DAPK1 (Homo sapiens, UniProt P53355); conditions: read-out: DAPK1, % of Control

Ros, sequence (P08922 28-2347): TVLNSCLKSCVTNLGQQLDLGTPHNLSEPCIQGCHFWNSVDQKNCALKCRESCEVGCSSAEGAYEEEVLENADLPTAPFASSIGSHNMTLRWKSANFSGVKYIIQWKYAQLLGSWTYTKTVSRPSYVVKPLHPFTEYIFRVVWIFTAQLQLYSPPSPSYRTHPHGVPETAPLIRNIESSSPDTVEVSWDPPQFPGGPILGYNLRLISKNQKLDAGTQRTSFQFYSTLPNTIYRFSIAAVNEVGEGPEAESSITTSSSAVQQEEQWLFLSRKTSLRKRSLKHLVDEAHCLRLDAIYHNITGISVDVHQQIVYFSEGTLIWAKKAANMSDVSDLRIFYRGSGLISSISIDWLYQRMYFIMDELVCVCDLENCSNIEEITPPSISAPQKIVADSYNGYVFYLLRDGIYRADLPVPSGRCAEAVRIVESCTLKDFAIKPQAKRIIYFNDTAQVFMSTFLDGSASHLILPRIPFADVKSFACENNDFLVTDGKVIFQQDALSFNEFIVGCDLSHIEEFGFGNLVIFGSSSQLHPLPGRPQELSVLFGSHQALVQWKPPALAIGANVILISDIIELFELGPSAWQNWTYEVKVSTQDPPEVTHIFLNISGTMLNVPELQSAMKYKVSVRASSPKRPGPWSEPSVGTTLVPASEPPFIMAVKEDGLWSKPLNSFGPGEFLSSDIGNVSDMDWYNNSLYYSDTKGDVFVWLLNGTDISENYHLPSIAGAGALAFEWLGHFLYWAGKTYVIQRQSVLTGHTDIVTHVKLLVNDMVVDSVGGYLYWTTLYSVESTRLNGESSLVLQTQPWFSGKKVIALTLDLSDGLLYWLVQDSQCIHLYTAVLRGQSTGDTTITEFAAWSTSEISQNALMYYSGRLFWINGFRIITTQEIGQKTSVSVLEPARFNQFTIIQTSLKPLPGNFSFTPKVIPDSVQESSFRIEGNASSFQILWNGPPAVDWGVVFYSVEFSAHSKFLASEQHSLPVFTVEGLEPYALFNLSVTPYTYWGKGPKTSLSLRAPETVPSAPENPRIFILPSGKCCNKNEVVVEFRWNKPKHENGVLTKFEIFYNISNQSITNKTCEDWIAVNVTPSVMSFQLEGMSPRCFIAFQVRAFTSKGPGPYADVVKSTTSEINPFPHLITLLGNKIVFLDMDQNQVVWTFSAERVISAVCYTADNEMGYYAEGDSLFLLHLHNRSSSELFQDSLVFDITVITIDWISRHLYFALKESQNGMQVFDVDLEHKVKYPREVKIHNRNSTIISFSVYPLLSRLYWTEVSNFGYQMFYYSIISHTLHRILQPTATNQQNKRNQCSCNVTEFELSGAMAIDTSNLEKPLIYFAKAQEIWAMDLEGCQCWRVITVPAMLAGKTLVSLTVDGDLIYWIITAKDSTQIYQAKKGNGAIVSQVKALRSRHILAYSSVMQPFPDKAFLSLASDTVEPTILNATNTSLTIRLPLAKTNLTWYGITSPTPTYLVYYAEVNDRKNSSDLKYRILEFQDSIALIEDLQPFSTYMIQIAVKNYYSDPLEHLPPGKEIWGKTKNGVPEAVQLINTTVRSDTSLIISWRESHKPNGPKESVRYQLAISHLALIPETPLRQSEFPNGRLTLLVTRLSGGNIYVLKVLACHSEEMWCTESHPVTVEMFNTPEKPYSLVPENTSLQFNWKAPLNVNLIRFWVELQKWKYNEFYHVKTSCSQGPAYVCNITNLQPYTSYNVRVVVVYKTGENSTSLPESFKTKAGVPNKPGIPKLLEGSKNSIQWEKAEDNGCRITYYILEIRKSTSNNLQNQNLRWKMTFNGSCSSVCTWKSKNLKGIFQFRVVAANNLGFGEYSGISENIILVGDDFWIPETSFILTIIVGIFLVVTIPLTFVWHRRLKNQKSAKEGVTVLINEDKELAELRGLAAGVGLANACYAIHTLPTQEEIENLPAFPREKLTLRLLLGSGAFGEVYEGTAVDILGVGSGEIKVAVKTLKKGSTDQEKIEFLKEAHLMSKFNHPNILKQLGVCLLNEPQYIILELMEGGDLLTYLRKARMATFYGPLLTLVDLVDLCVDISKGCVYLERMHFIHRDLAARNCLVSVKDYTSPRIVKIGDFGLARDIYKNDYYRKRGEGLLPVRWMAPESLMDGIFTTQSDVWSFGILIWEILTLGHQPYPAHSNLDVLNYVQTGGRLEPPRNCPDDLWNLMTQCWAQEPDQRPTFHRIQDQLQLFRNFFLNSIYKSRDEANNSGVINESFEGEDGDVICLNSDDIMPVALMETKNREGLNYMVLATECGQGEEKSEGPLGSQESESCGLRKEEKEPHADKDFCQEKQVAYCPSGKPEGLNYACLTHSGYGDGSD
TrkB, sequence (Q16620 32-822): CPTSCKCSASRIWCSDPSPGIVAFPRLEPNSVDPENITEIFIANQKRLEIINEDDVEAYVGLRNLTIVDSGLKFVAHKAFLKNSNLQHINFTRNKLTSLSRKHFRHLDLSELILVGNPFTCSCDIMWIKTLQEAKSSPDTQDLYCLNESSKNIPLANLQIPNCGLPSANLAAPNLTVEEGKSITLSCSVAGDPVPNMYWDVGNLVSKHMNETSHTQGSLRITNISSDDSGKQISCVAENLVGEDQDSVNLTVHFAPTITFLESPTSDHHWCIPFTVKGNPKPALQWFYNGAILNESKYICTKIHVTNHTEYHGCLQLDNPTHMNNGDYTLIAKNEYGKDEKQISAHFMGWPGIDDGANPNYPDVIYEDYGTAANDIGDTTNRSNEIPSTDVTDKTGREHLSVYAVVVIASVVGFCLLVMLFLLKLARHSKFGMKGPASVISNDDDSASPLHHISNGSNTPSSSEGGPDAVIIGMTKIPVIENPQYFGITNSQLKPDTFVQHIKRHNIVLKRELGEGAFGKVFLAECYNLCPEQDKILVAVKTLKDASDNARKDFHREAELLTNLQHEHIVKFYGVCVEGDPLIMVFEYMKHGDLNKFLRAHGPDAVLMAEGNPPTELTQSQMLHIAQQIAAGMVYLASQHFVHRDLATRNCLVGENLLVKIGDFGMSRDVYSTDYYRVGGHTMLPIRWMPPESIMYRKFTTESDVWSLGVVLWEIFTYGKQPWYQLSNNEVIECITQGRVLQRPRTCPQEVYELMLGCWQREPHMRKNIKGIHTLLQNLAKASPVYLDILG
PKBβ, sequence (P31751 whole entry): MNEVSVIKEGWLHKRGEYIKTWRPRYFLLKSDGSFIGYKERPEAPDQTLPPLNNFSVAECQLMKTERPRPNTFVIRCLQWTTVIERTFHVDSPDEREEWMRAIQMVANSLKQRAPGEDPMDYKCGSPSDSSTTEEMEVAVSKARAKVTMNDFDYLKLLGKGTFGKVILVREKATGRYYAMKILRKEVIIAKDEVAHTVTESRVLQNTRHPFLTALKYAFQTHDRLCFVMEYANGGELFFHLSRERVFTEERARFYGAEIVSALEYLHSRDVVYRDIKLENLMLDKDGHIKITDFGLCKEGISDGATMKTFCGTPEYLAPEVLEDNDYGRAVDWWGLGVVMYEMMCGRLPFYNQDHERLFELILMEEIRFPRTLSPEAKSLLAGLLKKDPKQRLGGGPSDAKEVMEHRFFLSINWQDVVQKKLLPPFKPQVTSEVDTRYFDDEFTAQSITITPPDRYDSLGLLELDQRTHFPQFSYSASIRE
TrkA, sequence (P04629 33-796): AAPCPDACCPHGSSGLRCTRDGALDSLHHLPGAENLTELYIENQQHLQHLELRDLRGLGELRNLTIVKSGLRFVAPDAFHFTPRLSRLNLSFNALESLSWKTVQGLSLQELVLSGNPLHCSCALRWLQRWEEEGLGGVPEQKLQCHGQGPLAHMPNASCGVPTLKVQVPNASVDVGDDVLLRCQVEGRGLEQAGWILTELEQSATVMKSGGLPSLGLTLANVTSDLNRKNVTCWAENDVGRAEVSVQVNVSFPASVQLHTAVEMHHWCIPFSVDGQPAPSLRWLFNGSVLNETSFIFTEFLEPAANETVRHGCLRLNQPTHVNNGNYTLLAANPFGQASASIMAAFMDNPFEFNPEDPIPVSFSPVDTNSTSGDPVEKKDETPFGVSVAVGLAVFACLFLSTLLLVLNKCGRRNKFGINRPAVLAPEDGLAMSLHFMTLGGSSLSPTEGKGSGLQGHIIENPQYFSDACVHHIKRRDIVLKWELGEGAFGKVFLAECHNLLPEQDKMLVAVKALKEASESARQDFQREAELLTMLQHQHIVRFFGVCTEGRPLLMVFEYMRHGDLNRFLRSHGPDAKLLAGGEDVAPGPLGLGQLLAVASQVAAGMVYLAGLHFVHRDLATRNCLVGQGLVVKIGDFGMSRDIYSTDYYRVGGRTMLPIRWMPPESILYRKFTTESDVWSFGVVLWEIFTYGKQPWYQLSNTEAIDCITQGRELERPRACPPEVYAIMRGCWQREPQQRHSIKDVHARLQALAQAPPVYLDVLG

COc1cc(O)c(CC=C(C)C)c(O)c1C(=O)/C=C/c1ccc(O)cc1 [Xanthohumol, xanthohumol]
remaining activity at 1 µg/mL (TrkA; 1 ug/ml): 36% | remaining activity at 5 µg/mL (TrkA; 5 ug/ml): 19% | remaining activity at 25 µg/mL (TrkA; 25 ug/ml): 8% | remaining activity at 50 µg/mL (TrkA; 50 ug/ml): 3% | remaining activity at 1 µg/mL (PRAK; 1 ug/ml): 101% | remaining activity at 5 µg/mL (PRAK; 5 ug/ml): 53% | remaining activity at 1 µg/mL (ZIPK; 1 ug/ml): 115% | remaining activity at 5 µg/mL (ZIPK; 5 ug/ml): 74% | remaining activity at 25 µg/mL (ZIPK; 25 ug/ml): 20% | remaining activity at 50 µg/mL (ZIPK; 50 ug/ml): 70% | remaining activity at 1 µg/mL (Ros; 1 ug/ml): 101% | remaining activity at 5 µg/mL (Ros; 5 ug/ml): 99% | remaining activity at 25 µg/mL (Ros; 25 ug/ml): 85% | remaining activity at 50 µg/mL (Ros; 50 ug/ml): 94% | remaining activity at 1 µg/mL (PKBβ; 1 ug/ml): 146% | remaining activity at 5 µg/mL (PKBβ; 5 ug/ml): 102% | remaining activity at 25 µg/mL (PKBβ; 25 ug/ml): 1% | remaining activity at 50 µg/mL (PKBβ; 50 ug/ml): 8% | remaining activity at 1 µg/mL (TrkB; 1 ug/ml): 95% | remaining activity at 5 µg/mL (TrkB; 5 ug/ml): 89% | remaining activity at 25 µg/mL (TrkB; 25 ug/ml): 58% | remaining activity at 50 µg/mL (TrkB; 50 ug/ml): 3% | remaining activity at 1 µg/mL (PKCα; 1 ug/ml): 100% | remaining activity at 5 µg/mL (PKCα; 5 ug/ml): 100% | remaining activity at 25 µg/mL (PKCα; 25 ug/ml): 75% | remaining activity at 50 µg/mL (PKCα; 50 ug/ml): 83% | remaining activity at 1 µg/mL (EphA8; 1 ug/ml): 103% | remaining activity at 5 µg/mL (EphA8; 5 ug/ml): 92% | remaining activity at 25 µg/mL (EphA8; 25 ug/ml): 29% | remaining activity at 50 µg/mL (EphA8; 50 ug/ml): 19% | remaining activity at 1 µg/mL (IKKβ; 1 ug/ml): 145% | remaining activity at 5 µg/mL (IKKβ; 5 ug/ml): 118% | remaining activity at 25 µg/mL (IKKβ; 25 ug/ml): 61% | remaining activity at 50 µg/mL (IKKβ; 50 ug/ml): 44% | remaining activity at 5 µg/mL (DAPK1; 5 ug/ml): 85% | remaining activity at 50 µg/mL (DAPK1; 50 ug/ml): 20%

Source: US20080051466A1, “Isoalpha acid based protein kinase modulation cancer treatment” (Metaproteomics, LLC, priority 2006, published 2008)
